As usually defined, the Kd is the constant that tells how readily two partners part at equilibrium. Higher therefore signals weaker binding.

Sequence of human TYK2 (JH2domain-pseudokinase) (P29597 556-888): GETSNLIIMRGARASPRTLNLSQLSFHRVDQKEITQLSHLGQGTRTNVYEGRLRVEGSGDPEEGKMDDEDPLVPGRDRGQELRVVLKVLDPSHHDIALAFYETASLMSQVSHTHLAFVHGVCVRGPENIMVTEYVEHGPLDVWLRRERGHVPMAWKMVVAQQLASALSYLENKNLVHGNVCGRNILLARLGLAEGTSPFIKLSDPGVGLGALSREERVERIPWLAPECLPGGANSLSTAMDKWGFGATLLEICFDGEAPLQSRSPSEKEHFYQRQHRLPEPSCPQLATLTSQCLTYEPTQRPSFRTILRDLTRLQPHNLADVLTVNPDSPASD

The assay concerns the target human TYK2 (JH2domain-pseudokinase) (Homo sapiens (Human), UniProt P29597). The assay is described as follows: TYK2 JH2 Domain Binding Assay (KINOMEscan, DiscoveRx). As to conditions: 11-point dilution, duplicate. Summed up: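 TYK2 JH2 (G556–D888)–NFkB DBD fusion, DNA-tagged, from HEK293 extracts (<0.1 nM) competed against immobilised biotinylated ligand for 1 h at room temperature, 0.9% DMSO. Bead-retained kinase quantified by qPCR; Kd from 11-point 3-fold series (top 30,000 nM, duplicate), Hill fit with slope −1.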
As to `Cc1nc2c(Nc3ccc([C@@H]4CCCO4)cc3S(C)(=O)=O)cc(NC(=O)C3CC3(F)F)nc2[nH]1` (stereo partly drawn) [I-348, 2,2-difluoro-N-(2-methyl-7-((2-(methylsulfonyl)-4-((S)-tetrahydrofuran-2-yl)phenyl)amino)-3H-imidazo[4,5-b]pyridin-5-yl)cyclopropane-1-carboxamide], the Kd lay within 0.1 to 0.5 nM. The figure for `COc1c(Nc2cc(Nc3cccc(C#N)n3)nc3[nH]c(C(F)F)nc23)cccc1-c1nc(C)cs1` [I-349] is 1 to 10 nM. On to `Cc1c(-c2ccc(Nc3cc(NC(=O)C4CC4)nc4[nH]c(C(F)F)nc34)c(S(C)(=O)=O)c2)nn(C)c1C` [I-350], for which the Kd lay within 0.1 to 0.5 nM. The figure for `CC1(C)CSC(c2ccc(Nc3cc(NC(=O)C4CC4(F)F)nc4[nH]c(C(F)F)nc34)c(S(C)(=O)=O)c2)=N1` (stereo not shown) [I-351, N-(2-(difluoromethyl)-7-((4-(4,4-dimethyl-4,5-dihydrothiazol-2-yl)-2-(methylsulfonyl)phenyl)amino)-3H-imidazo[4,5-b]pyridin-5-yl)-2,2-difluorocyclopropane-1-carboxamide] is above 10 nM; for `Cc1nc2c(Nc3ccc(-c4ncc(C)n4C)cc3S(C)(=O)=O)cc(Nc3cccc(C#N)n3)nc2[nH]1` [I-352] it is 0.1 to 0.5 nM. The figure for `CC1(C)CC[C@@H](c2ccc(Nc3cc(NC(=O)C4CC4)nc4[nH]c(C(F)F)nc34)c(S(C)(=O)=O)c2)OC1` [I-353] is 0.1 to 0.5 nM; for `CC1(C)CC[C@H](c2ccc(Nc3cc(NC(=O)C4CC4)nc4[nH]c(C(F)F)nc34)c(S(C)(=O)=O)c2)OC1` [I-354] it is 1 to 10 nM; for `Cc1nc2c(Nc3ccc(-c4c(C)nn(C)c4C)cc3S(C)(=O)=O)cc(Nc3cccc(C#N)n3)nc2[nH]1` [I-355] it is 0.1 to 0.5 nM. The figure for `CC1(C)CCC(c2ccc(Nc3cc(NC(=O)C4CC4)nc4[nH]c(C(F)F)nc34)c(S(C)(=O)=O)c2)OC1` (stereo not shown) [I-356] is 0.1 to 0.5 nM; for `Cc1nc2c(Nc3ccc(C4CC(C)(C)OC(C)(C)C4)cc3S(C)(=O)=O)cc(NC(=O)C3CC3)nc2[nH]1` [I-357] it is 1 to 10 nM.

In the case of `CS(=O)(=O)c1cc(C2CCC2)ccc1Nc1cc(NC(=O)C2CC2(F)F)nc2[nH]c(C(F)F)nc12` (stereo not shown) [I-358, N-(7-((4-cyclobutyl-2-(methylsulfonyl)phenyl)amino)-2-(difluoromethyl)-3H-imidazo[4,5-b]pyridin-5-yl)-2,2-difluorocyclopropane-1-carboxamide], the Kd is above 10 nM. In the case of `CS(=O)(=O)c1cc([C@@H]2CCCOC2)ccc1Nc1cc(NC(=O)C2CC2(F)F)nc2[nH]c(C(F)F)nc12` (stereo partly drawn) [I-359, N-(2-(difluoromethyl)-7-((2-(methylsulfonyl)-4-((S)-tetrahydro-2H-pyran-3-yl)phenyl)amino)-3H-imidazo[4,5-b]pyridin-5-yl)-2,2-difluorocyclopropane-1-carboxamide], the Kd was 1 to 10 nM.

Take `CS(=O)(=O)c1cc([C@H]2CCCOC2)ccc1Nc1cc(NC(=O)C2CC2(F)F)nc2[nH]c(C(F)F)nc12` (stereo partly drawn) [I-360, N-(2-(difluoromethyl)-7-((2-(methylsulfonyl)-4-((R)-tetrahydro-2H-pyran-3-yl)phenyl)amino)-3H-imidazo[4,5-b]pyridin-5-yl)-2,2-difluorocyclopropane-1-carboxamide]: the Kd is 1 to 10 nM. The result for `Cc1nc2c(Nc3ccc(C4CCC4)cc3S(C)(=O)=O)cc(NC(=O)C3CC3(F)F)nc2[nH]1` (stereo not shown) [I-361, N-(7-((4-cyclobutyl-2-(methylsulfonyl)phenyl)amino)-2-methyl-3H-imidazo[4,5-b]pyridin-5-yl)-2,2-difluorocyclopropane-1-carboxamide] reads 1 to 10 nM; that for `CN=S(C)(=O)c1ccccc1Nc1cc(NC(=O)C2CC2)nc2[nH]c(C(F)F)nc12` (stereo not shown) [I-362], 0.1 to 0.5 nM; that for `Cc1nc2c(Nc3ccc(-c4nn(C)cc4C)cc3S(C)(=O)=O)cc(NC(=O)C3CC3(C)C)nc2[nH]1` (stereo not shown) [I-363, N-(7-((4-(1,4-dimethyl-1H-pyrazol-3-yl)-2-(methylsulfonyl)phenyl)amino)-2-methyl-3H-imidazo[4,5-b]pyridin-5-yl)-2,2-dimethylcyclopropane-1-carboxamide], 1 to 10 nM. In turn, `Cc1cn(C)nc1-c1ccc(Nc2cc(NC(=O)C3CC3(C)C)nc3[nH]c(C(F)F)nc23)c(S(C)(=O)=O)c1` (stereo not shown) [I-364, N-(2-(difluoromethyl)-7-((4-(1,4-dimethyl-1H-pyrazol-3-yl)-2-(methylsulfonyl)phenyl)amino)-3H-imidazo[4,5-b]pyridin-5-yl)-2,2-dimethylcyclopropane-1-carboxamide] showed a Kd of 1 to 10 nM. Molecule `CS(=O)(=O)c1cc(C2CCCCO2)ccc1Nc1cc(Nc2cccc(C(F)(F)F)n2)nc2[nH]c(C(F)F)nc12` (stereo not shown) [I-365, 2-(difluoromethyl)-N7-(2-(methylsulfonyl)-4-(tetrahydro-2H-pyran-2-yl)phenyl)-N5-(6-(trifluoromethyl)pyridin-2-yl)-3H-imidazo[4,5-b]pyridine-5,7-diamine] came in with a Kd of 0.5 to 1 nM. Regarding `Cc1cc(Nc2cc(Nc3ccc(C4CCCCO4)cc3S(C)(=O)=O)c3nc(C(F)F)[nH]c3n2)nc(C)n1` (stereo not shown) [I-366, 2-(difluoromethyl)-N5-(2,6-dimethylpyrimidin-4-yl)-N7-(2-(methylsulfonyl)-4-(tetrahydro-2H-pyran-2-yl)phenyl)-3H-imidazo[4,5-b]pyridine-5,7-diamine], the Kd is below 0.1 nM. The result for `Cc1cc(Nc2cc(Nc3ccc(C4CCCCO4)cc3S(C)(=O)=O)c3nc(C)[nH]c3n2)nc(C)n1` (stereo not shown) [I-367, N5-(2,6-dimethylpyrimidin-4-yl)-2-methyl-N7-(2-(methylsulfonyl)-4-(tetrahydro-2H-pyran-2-yl)phenyl)-3H-imidazo[4,5-b]pyridine-5,7-diamine] reads below 0.1 nM. `CN(c1cc(C2CCCCO2)ccc1Nc1cc(NC(=O)C2CC2)nc2[nH]c(C(F)F)nc12)S(C)(=O)=O` (stereo not shown) [I-369, N-(2-(difluoromethyl)-7-((2-(N-methylmethylsulfonamido)-4-(tetrahydro-2H-pyran-2-yl)phenyl)amino)-3H-imidazo[4,5-b]pyridin-5-yl)cyclopropanecarboxamide] registered a Kd of 0.1 to 0.5 nM.

In turn, `CN(c1cc(-c2cncn2C)ccc1Nc1cc(NC(=O)[C@H]2C[C@@H]2F)nc2[nH]c(C(F)F)nc12)S(C)(=O)=O` [I-370, (1R,2S)—N-(2-(difluoromethyl)-7-((4-(1-methyl-1H-imidazol-5-yl)-2-(N-methylmethylsulfonamido)phenyl)amino)-3H-imidazo[4,5-b]pyridin-5-yl)-2-fluorocyclopropane-1-carboxamide] had a Kd of 0.1 to 0.5 nM. `Cn1ccc(-c2ccc(Nc3cc(NC(=O)[C@H]4C[C@@H]4F)nc4[nH]c(C(F)F)nc34)c(S(C)(=O)=O)c2)n1` [I-371, (1R,2S)—N-(2-(difluoromethyl)-7-((4-(1-methyl-1H-pyrazol-3-yl)-2-(methylsulfonyl)phenyl)amino)-3H-imidazo[4,5-b]pyridin-5-yl)-2-fluorocyclopropane-1-carboxamide] gave a Kd of 0.1 to 0.5 nM.

In the case of `Cc1nc2c(Nc3ccc(-c4cnn(C)c4)cc3N(C)S(C)(=O)=O)cc(NC(=O)[C@H]3C[C@@H]3F)nc2[nH]1` [I-372, (1R,2S)-2-fluoro-N-(2-methyl-7-((4-(1-methyl-1H-pyrazol-4-yl)-2-(N-methylmethylsulfonamido)phenyl)amino)-3H-imidazo[4,5-b]pyridin-5-yl)cyclopropane-1-carboxamide], the Kd lay within 0.5 to 1 nM. Molecule `COc1c(Nc2cc(NC(=O)[C@H]3C[C@@H]3F)nc3[nH]c(C)nc23)cccc1-c1ncn(C)n1` [I-373, (1R,2S)-2-fluoro-N-(7-((2-methoxy-3-(1-methyl-1H-1,2,4-triazol-3-yl)phenyl)amino)-2-methyl-3H-imidazo[4,5-b]pyridin-5-yl)cyclopropane-1-carboxamide] had a Kd of 1 to 10 nM. For `Cc1nc2c(Nc3ccc(C4CCCCO4)cc3N(C)S(C)(=O)=O)cc(NC(=O)C3CC3)nc2[nH]1` (stereo not shown) [I-375, N-(2-methyl-7-((2-(N-methylmethylsulfonamido)-4-(tetrahydro-2H-pyran-2-yl)phenyl)amino)-3H-imidazo[4,5-b]pyridin-5-yl)cyclopropanecarboxamide], the Kd is 0.1 to 0.5 nM. The figure for `Cc1nc2c(Nc3ccc(-c4cnn(C)c4)cc3N(C)S(C)(=O)=O)cc(NC(=O)C3CC3(F)F)nc2[nH]1` (stereo not shown) [I-376, 2,2-difluoro-N-(2-methyl-7-((4-(1-methyl-1H-pyrazol-4-yl)-2-(N-methylmethylsulfonamido)phenyl)amino)-3H-imidazo[4,5-b]pyridin-5-yl)cyclopropane-1-carboxamide] is above 10 nM; for `Cc1nc2c(Nc3ccc(-c4ccn(C)n4)cc3S(C)(=O)=O)cc(NC(=O)C3CC3(F)F)nc2[nH]1` (stereo not shown) [I-377, 2,2-difluoro-N-(2-methyl-7-((4-(1-methyl-1H-pyrazol-3-yl)-2-(methylsulfonyl)phenyl)amino)-3H-imidazo[4,5-b]pyridin-5-yl)cyclopropane-1-carboxamide] it is 0.5 to 1 nM. Consider `Cc1nc2c(Nc3ccc(-c4cn(C)cn4)cc3S(C)(=O)=O)cc(NC(=O)C3CC3(F)F)nc2[nH]1` (stereo not shown) [I-378, N-(7-((4-(1l2-imidazol-4-yl)-2-(methylsulfonyl)phenyl)amino)-2-methyl-3H-imidazo[4,5-b]pyridin-5-yl)-2,2-difluorocyclopropane-1-carboxamide], for which the dissociation constant Kd lay in the range of 0.5 to 1 nM.

In turn, `Cn1cncc1-c1ccc(Nc2cc(NC(=O)C3CC3(F)F)nc3[nH]c(C(F)F)nc23)c(S(C)(=O)=O)c1` (stereo not shown) [I-379, N-(2-(difluoromethyl)-7-((4-(1-methyl-1H-imidazol-5-yl)-2-(methylsulfonyl)phenyl)amino)-3H-imidazo[4,5-b]pyridin-5-yl)-2,2-difluorocyclopropane-1-carboxamide] came in with a Kd of 0.1 to 0.5 nM. On to `CN(c1cc(-c2cncn2C)ccc1Nc1cc(NC(=O)C2CC2(F)F)nc2[nH]c(C(F)F)nc12)S(C)(=O)=O` (stereo not shown) [I-380, N-(2-(difluoromethyl)-7-((4-(1-methyl-1H-imidazol-5-yl)-2-(N-methylmethylsulfonamido)phenyl)amino)-3H-imidazo[4,5-b]pyridin-5-yl)-2,2-difluorocyclopropane-1-carboxamide], for which the Kd was in the range of 0.5 to 1 nM.

(Values after patent publication US10647713B2 (Nimbus Lakshmi, Inc., priority 2016, dated 2020).)
